# Active and inactive are the calls of the source. The calls were made as follows: active = viability on the fitted dose curve at most 10% of control; inactive = the rest.
# Tested on: 128128-338-R-J1-PDC spheroids, viability % test/control
# Assay: Anticancer human tumor 128128-338-R-J1-PDC patient-derived melanoma cell line growth inhibition [TAK]
# Settings: spheroids with HUVEC and MSC; for IC50: curve of first compound; for viability, T/C: stronger effect = lower value
# Outline: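 Drug combinations, each paired with TAK-243 or ipatasertib, were tested on multi-cell spheroids of 60% malignant cells, 25% HUVEC and 15% hMSC. Top concentrations were at or near the clinical Cmax (10 microM if undetermined), decreasing by half-log; viability is given as % test/control.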
# [1] = second compound 0.3 µM, first compound 0.0316 µM
# [2] = second compound 0.3 µM, first compound 0.1 µM
# [3] = second compound 0.949 µM, first compound 0.0316 µM
# [4] = second compound 0.949 µM, first compound 0.1 µM
# [5] = second compound 3 µM, first compound 0.0316 µM
# [6] = second compound 3 µM, first compound 0.1 µM
# [7] = second compound 9.49 µM, first compound 0.0316 µM
# [8] = second compound 9.49 µM, first compound 0.1 µM
# [9] = second compound 30 µM, first compound 0.0316 µM
# [10] = second compound 30 µM, first compound 0.1 µM
# [11] = second compound 0.3 µM, first compound 0.316 µM
# [12] = second compound 0.3 µM, first compound 1 µM
# [13] = second compound 0.3 µM, first compound 3.16 µM
# [14] = second compound 0.3 µM, first compound 10 µM
# [15] = second compound 0.949 µM, first compound 0.316 µM
# [16] = second compound 0.949 µM, first compound 1 µM
# [17] = second compound 0.949 µM, first compound 3.16 µM
# [18] = second compound 0.949 µM, first compound 10 µM
# [19] = second compound 3 µM, first compound 0.316 µM
# [20] = second compound 3 µM, first compound 1 µM
# [21] = second compound 3 µM, first compound 3.16 µM
# [22] = second compound 3 µM, first compound 10 µM
# [23] = second compound 9.49 µM, first compound 0.316 µM
# [24] = second compound 9.49 µM, first compound 1 µM
# [25] = second compound 9.49 µM, first compound 3.16 µM
# [26] = second compound 9.49 µM, first compound 10 µM
# [27] = second compound 30 µM, first compound 0.316 µM
# [28] = second compound 30 µM, first compound 1 µM
# [29] = second compound 30 µM, first compound 3.16 µM
# [30] = second compound 30 µM, first compound 10 µM
# 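Also: spheroids exposed to compounds for 7 days.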
# 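For viability, T/C in this document: 100% = DMSO vehicle wells.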
compound,measurement,setting,value
COC1CC2CCC(C)C(O)(O2)C(=O)C(=O)N2CCCCC2C(=O)OC(C(C)CC2CCC(OCCO)C(OC)C2)CC(=O)C(C)C=C(C)C(O)C(OC)C(=O)C(C)CC(C)C=CC=CC=C1C (stereo not given) + CC(C)NCC(C(=O)N1CCN(c2ncnc3c2C(C)CC3O)CC1)c1ccc(Cl)cc1,IC50,second compound 0.3 µM,> 0.1 µM
same,IC50,second compound 0.949 µM,0.0185 µM
same,IC50,second compound 3 µM,0.00741 µM
same,IC50,second compound 9.49 µM,0.000462 µM
same,IC50,second compound 30 µM,< 0.000316 µM
same,"viability, T/C","second compound 0.3 µM, first compound 0.000316 µM",110%
same,"viability, T/C","second compound 0.3 µM, first compound 0.001 µM",99.9%
same,"viability, T/C","second compound 0.3 µM, first compound 0.00316 µM",87.6%
same,"viability, T/C","second compound 0.3 µM, first compound 0.01 µM",69.1%
same,"viability, T/C",[1],56.6%
same,"viability, T/C",[2],54.4%
same,"viability, T/C","second compound 0.949 µM, first compound 0.000316 µM",110%
same,"viability, T/C","second compound 0.949 µM, first compound 0.001 µM",97.4%
same,"viability, T/C","second compound 0.949 µM, first compound 0.00316 µM",68.8%
same,"viability, T/C","second compound 0.949 µM, first compound 0.01 µM",56.4%
same,"viability, T/C",[3],48.8%
same,"viability, T/C",[4],35.6%
same,"viability, T/C","second compound 3 µM, first compound 0.000316 µM",88%
same,"viability, T/C","second compound 3 µM, first compound 0.001 µM",77.4%
same,"viability, T/C","second compound 3 µM, first compound 0.00316 µM",62.5%
same,outcome,"second compound 3 µM, first compound 0.01 µM",inactive
same,outcome,[5],inactive
same,outcome,[6],inactive
same,"viability, T/C","second compound 9.49 µM, first compound 0.000316 µM",56.3%
same,"viability, T/C","second compound 9.49 µM, first compound 0.001 µM",37.2%
same,"viability, T/C","second compound 9.49 µM, first compound 0.00316 µM",20.4%
same,"viability, T/C","second compound 9.49 µM, first compound 0.01 µM",11.9%
same,"viability, T/C",[7],9.65%
same,"viability, T/C",[8],9.71%
same,"viability, T/C","second compound 30 µM, first compound 0.000316 µM",9.06%
same,"viability, T/C","second compound 30 µM, first compound 0.001 µM",7.48%
same,"viability, T/C","second compound 30 µM, first compound 0.00316 µM",3.65%
same,"viability, T/C","second compound 30 µM, first compound 0.01 µM",2.31%
same,"viability, T/C",[9],2.3%
same,"viability, T/C",[10],2.06%
Cc1nc(NC(=O)N2CCCC2C(N)=O)sc1-c1ccnc(C(C)(C)C(F)(F)F)c1 (stereo not given) + CC(C)NCC(C(=O)N1CCN(c2ncnc3c2C(C)CC3O)CC1)c1ccc(Cl)cc1,IC50,second compound 0.3 µM,> 10 µM
same,IC50,second compound 0.949 µM,> 10 µM
same,IC50,second compound 3 µM,> 10 µM
same,IC50,second compound 9.49 µM,3.46 µM
same,IC50,second compound 30 µM,< 0.0316 µM
same,"viability, T/C",[1],102%
same,"viability, T/C",[2],105%
same,"viability, T/C",[11],102%
same,"viability, T/C",[12],105%
same,"viability, T/C",[13],105%
same,"viability, T/C",[14],73.2%
same,"viability, T/C",[3],89%
same,"viability, T/C",[4],103%
same,"viability, T/C",[15],100%
same,"viability, T/C",[16],91.7%
same,"viability, T/C",[17],82.7%
same,"viability, T/C",[18],81.8%
same,"viability, T/C",[5],95.8%
same,"viability, T/C",[6],88.8%
same,"viability, T/C",[19],90.7%
same,"viability, T/C",[20],84.7%
same,"viability, T/C",[21],80%
same,"viability, T/C",[22],54.5%
same,"viability, T/C",[7],69.5%
same,"viability, T/C",[8],70.2%
same,"viability, T/C",[23],68.5%
same,"viability, T/C",[24],64.8%
same,"viability, T/C",[25],51.8%
same,"viability, T/C",[26],23.7%
same,"viability, T/C",[9],24.1%
same,"viability, T/C",[10],21.2%
same,"viability, T/C",[27],22.1%
same,"viability, T/C",[28],16.6%
same,"viability, T/C",[29],15%
same,"viability, T/C",[30],3.6%
CC(C)(C)c1nc(-c2cccc(NS(=O)(=O)c3c(F)cccc3F)c2F)c(-c2ccnc(N)n2)s1 + CC(C)NCC(C(=O)N1CCN(c2ncnc3c2C(C)CC3O)CC1)c1ccc(Cl)cc1,IC50,second compound 0.3 µM,0.046 µM
same,IC50,second compound 0.949 µM,0.0412 µM
same,IC50,second compound 3 µM,< 0.0316 µM
same,IC50,second compound 9.49 µM,< 0.0316 µM
same,IC50,second compound 30 µM,< 0.0316 µM
same,"viability, T/C",[1],61%
same,"viability, T/C",[2],27.1%
same,"viability, T/C",[11],6.08%
same,"viability, T/C",[12],1.93%
same,"viability, T/C",[13],1.83%
same,"viability, T/C",[14],8.83%
same,"viability, T/C",[3],58.6%
same,"viability, T/C",[4],21%
same,"viability, T/C",[15],2.85%
same,"viability, T/C",[16],1.56%
same,"viability, T/C",[17],0.98%
same,"viability, T/C",[18],2.06%
same,"viability, T/C",[5],29.6%
same,"viability, T/C",[6],8.97%
same,"viability, T/C",[19],1.74%
same,"viability, T/C",[20],1.17%
same,"viability, T/C",[21],0.79%
same,"viability, T/C",[22],0.99%
same,"viability, T/C",[7],12.7%
same,"viability, T/C",[8],1.27%
same,"viability, T/C",[23],1.2%
same,"viability, T/C",[24],0.7%
same,"viability, T/C",[25],0.6%
same,"viability, T/C",[26],0.64%
same,"viability, T/C",[9],0.69%
same,"viability, T/C",[10],0.56%
same,"viability, T/C",[27],0.78%
same,"viability, T/C",[28],0.44%
same,"viability, T/C",[29],0.34%
same,"viability, T/C",[30],0.42%

# Source: PubChem BioAssay AID2060362 (Molecular Pharmacology Branch, DTP, NCI, 2025)
